Several values for one entry are separate records, joined by “and”; a condition that tells them apart may be missing. Identical values can stand only once.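 These data come from cells grown in 96-well plates and exposed to compound for 48 hours at five concentrations. Abbreviation: GI50, concentration required for 50% inhibition of growth. TGI: total growth inhibition.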

Among the test systems are DU-145 prostate; HT29 colon; M14 melanoma; MDA-MB-231 breast; NCI-H226 lung; T-47D breast; UACC-257 melanoma; UO-31 renal; A498 renal; MDA-MB-435.
What all share (test): NCI tumour cell line growth inhibition, 48 h

Consider `CC(=O)O[C@H]1C(=O)[C@@]2(C)[C@H]([C@H](OC(=O)c3ccccc3)[C@]3([O-])C[C@H](OC(=O)[C@H]([O-])[C@@H](NC(=O)c4ccccc4)c4ccccc4)C(C)=C1C3(C)C)[C@]1(OC(C)=O)CO[C@@H]1C[C@@H]2[O-].[Fe+3]`, for which the GI50 is 0.068 µM and 0.0595 µM in the assay with DU-145 prostate; 0.0236 µM and 0.0328 µM with HT29 colon; 0.11 µM and 0.0637 µM in the assay with M14 melanoma; 0.746 µM and 0.732 µM in the assay with MDA-MB-231 breast; 0.227 µM and 0.768 µM with NCI-H226 lung; 0.0802 µM and 0.0744 µM with T-47D breast. Also, the GI50 in the assay on UO-31 renal is 4.45 µM and 4.87 µM. Also, the TGI in the assay with DU-145 prostate was 0.272 µM and 0.595 µM; in the assay on M14 melanoma, 0.491 µM and 0.391 µM; in the assay on MDA-MB-231 breast it was 63.9 µM and 32.2 µM; in the assay with NCI-H226 lung it was 65 µM and 70.7 µM; with T-47D breast it was 65 µM and 95.7 µM; in the assay on UACC-257 melanoma it was 65 µM and > 100 µM. In addition, in the assay with UO-31 renal, the TGI was 65 µM and > 100 µM.

On to `Nc1ccc(SC23CC4CC(CC(C4)C2)C3)cc1`, for which the TGI in the assay on A498 renal, in the assay on DU-145 prostate, in the assay on HT29 colon, with M14 melanoma, with MDA-MB-231 breast and in the assay with MDA-MB-435 was more than 100 µM throughout. Moreover, the TGI in the assay with T-47D breast, in the assay with UACC-257 melanoma and with UO-31 renal was more than 100 µM in each case.

As for `CC(=O)n1c(-c2ccc(Cl)cc2)nc2c(c1=O)C(c1ccc(Cl)cc1)c1sc3c(Cl)cccc3c1O2` (stereo unspecified), the GI50 with DU-145 prostate is 0.499 µM; in the assay on HT29 colon it was 0.368 µM; in the assay on M14 melanoma it was 0.3 µM; in the assay with MDA-MB-231 breast it was 0.887 µM; in the assay on MDA-MB-435, 0.167 µM; with NCI-H226 lung, 0.323 µM. Also, the results for the GI50 in the assay on T-47D breast, in the assay with UACC-257 melanoma and in the assay with UO-31 renal were 0.48 µM, 0.68 µM and 0.551 µM, respectively. The TGI with DU-145 prostate was 2.38 µM; in the assay on HT29 colon, 1.33 µM; in the assay on M14 melanoma it was 1.24 µM; in the assay with MDA-MB-231 breast, 2.89 µM; with MDA-MB-435 it was 0.463 µM; with NCI-H226 lung, 1.78 µM. Moreover, the TGI is 2.78 µM with T-47D breast, 3.9 µM with UACC-257 melanoma and 2.2 µM with UO-31 renal.

`CNC(=O)c1ccc(-c2cnc3ncc(Cc4ccc5ncccc5c4)n3n2)cc1F`: the GI50 in the assay on A498 renal was more than 100 µM; in the assay on DU-145 prostate, more than 100 µM; in the assay on HT29 colon it was more than 100 µM; in the assay with MDA-MB-231 breast, 40.8 µM; in the assay on MDA-MB-435 it was more than 100 µM; in the assay on NCI-H226 lung, 34.6 µM. Moreover, the GI50 in the assay on T-47D breast, with UACC-257 melanoma and in the assay on UO-31 renal was more than 100 µM in each case. Besides, the TGI in the assay on A498 renal, in the assay with DU-145 prostate, in the assay on HT29 colon, in the assay on MDA-MB-231 breast, in the assay on MDA-MB-435 and in the assay with NCI-H226 lung was more than 100 µM in each case. The TGI with T-47D breast, in the assay on UACC-257 melanoma and in the assay with UO-31 renal was more than 100 µM each time.

Turning to `Cc1ccc(C(=O)CC(Sc2cccc(Cl)c2Cl)c2ccc(Cl)cc2)cc1C` (stereo unspecified), the GI50 was 19.2 µM with A498 renal; 16.1 µM with DU-145 prostate; 26.7 µM in the assay on M14 melanoma; 17.9 µM in the assay with MDA-MB-231 breast; 20 µM in the assay on MDA-MB-435; 20.5 µM with NCI-H226 lung. In addition, the figures for the GI50 with T-47D breast, in the assay on UACC-257 melanoma and with UO-31 renal were 27.1 µM, 20.9 µM and 20 µM, respectively. Moreover, the TGI came out at 46.8 µM in the assay with A498 renal; 34.9 µM in the assay with DU-145 prostate; 65.1 µM in the assay on M14 melanoma; 39 µM in the assay on MDA-MB-231 breast; 50 µM in the assay on MDA-MB-435; 37.4 µM in the assay with NCI-H226 lung. The TGI came to 76.9 µM in the assay with T-47D breast, 48.6 µM with UACC-257 melanoma and 40.9 µM in the assay with UO-31 renal.

`Cc1ccc2/c(=C/c3ccc(N(C)C)cc3)c3cc(-c4ccccc4)[n+](C)n3c2c1`: the GI50 with DU-145 prostate was 0.0473 µM; in the assay with HT29 colon, 0.0411 µM; in the assay with M14 melanoma it was 0.0591 µM; in the assay with MDA-MB-231 breast it was 0.0337 µM; in the assay on MDA-MB-435 it was 0.037 µM; in the assay on T-47D breast it was 0.0956 µM. Further, the GI50 in the assay with UACC-257 melanoma was 0.0307 µM; in the assay on UO-31 renal, 0.92 µM. Also, the TGI in the assay with DU-145 prostate is 4.37 µM; in the assay with HT29 colon, more than 100 µM; in the assay with M14 melanoma it was 2.54 µM; in the assay with MDA-MB-231 breast it was 1.06 µM; with MDA-MB-435, 1.66 µM; with T-47D breast it was more than 100 µM. In addition, in the assay on UACC-257 melanoma, the TGI is 1.71 µM.

As to `Clc1ccc(OCc2nnc3n2N=C(c2ccc(Cl)cc2Cl)CS3)c(Cl)c1`, the GI50 with DU-145 prostate was 33.6 µM; in the assay with HT29 colon, 24.4 µM; in the assay with M14 melanoma, 22.7 µM; with MDA-MB-231 breast, 14.9 µM; in the assay on MDA-MB-435, 24.3 µM; in the assay with NCI-H226 lung it was 17.6 µM. Also, the GI50 in the assay on T-47D breast was 33 µM; in the assay on UACC-257 melanoma it was 24 µM; in the assay with UO-31 renal it was 18.2 µM. Further, the TGI was more than 100 µM in the assay with DU-145 prostate; 83.3 µM in the assay on HT29 colon; 51 µM in the assay on M14 melanoma; 38.3 µM in the assay with MDA-MB-231 breast; more than 100 µM in the assay on MDA-MB-435; 43.2 µM in the assay with NCI-H226 lung. For the same compound, the TGI in the assay with T-47D breast is more than 100 µM; in the assay on UACC-257 melanoma, 52 µM; in the assay with UO-31 renal it was 47.5 µM.

For `CCN(CCO)CCNc1ccc(C)c2sc3cc(Cl)ccc3c(=O)c12`, the GI50 with DU-145 prostate was 1.57 µM; in the assay with HT29 colon, 1.28 µM; in the assay on M14 melanoma it was 1.64 µM; in the assay on MDA-MB-231 breast, 0.783 µM; in the assay with MDA-MB-435, 0.891 µM; with NCI-H226 lung, 1.39 µM. Further, the GI50 was 1.91 µM with T-47D breast, 1.97 µM in the assay on UACC-257 melanoma and 1.1 µM in the assay on UO-31 renal. Also, the TGI in the assay on DU-145 prostate came to 2.94 µM; in the assay on HT29 colon, 2.62 µM; in the assay with M14 melanoma it was 3.23 µM; in the assay with MDA-MB-231 breast, 2.24 µM; in the assay on MDA-MB-435, 2.26 µM; in the assay on NCI-H226 lung it was 3.12 µM. Moreover, the TGI came to 3.96 µM with T-47D breast, 3.55 µM with UACC-257 melanoma and 2.4 µM in the assay with UO-31 renal.

For `Cc1c(C(=O)NN)nnn1-c1ccnc2c(C(F)(F)F)cccc12`, the GI50 in the assay with A498 renal, in the assay on DU-145 prostate, in the assay with M14 melanoma, in the assay on MDA-MB-231 breast, in the assay on MDA-MB-435 and in the assay on NCI-H226 lung was more than 100 µM in each case. In addition, the GI50 with T-47D breast, with UACC-257 melanoma and in the assay with UO-31 renal was more than 100 µM each time. For the same compound, the TGI in the assay on A498 renal, in the assay on DU-145 prostate, in the assay on M14 melanoma, in the assay with MDA-MB-231 breast, in the assay on MDA-MB-435 and with NCI-H226 lung was more than 100 µM each time. For the same compound, the TGI with T-47D breast, with UACC-257 melanoma and in the assay with UO-31 renal was more than 100 µM in each case.

(Values after PubChem BioAssay (NCI).)
